Measurements: patent publication US5126359A, “Substituted bisazoles and their use as medicaments” (Bayer Aktiengesellschaft, priority 1988, dated 1992)
Values after ≈ are worked out from the molar mass of the structure shown.

Columns and labels:
Torulopsis glabrata = assay: Antimycotic in vitro activity, serial dilution test (MIC), Torulopsis glabrata; type: cell-based; conditions: Nakaseomyces glabratus; Meat extract-dextrose broth; 28° to 37° C.; 24 to 48 hours
Description: (§1) The in vitro tests were carried out in a serial dilution test using inocula of microorganisms of on average 5×10^3 to 10^4 microorganisms/ml of substrate. The nutrient medium used was (b) for yeasts: Meat extract-dextrose broth. The incubation temperature was 28° to 37° C., and the incubation period was 24 to 48 hours with yeasts and 96 hours with Dermatophytes and hyphomycetes.

Trichophyton mentagr. = assay: Antimycotic in vitro activity, serial dilution test (MIC), Trichophyton mentagrophytes; type: cell-based; conditions: Kimmig's test medium, 28° to 37° C., 96 hours
Description: (§2) The in vitro tests were carried out in a serial dilution test using inocula of microorganisms of on average 5×10^3 to 10^4 microorganisms/ml of substrate. The nutrient medium used was
(§3) (a) for dermatophytes and Hyphomycetes: Kimmig's test medium
(§4) The incubation temperature was 28° to 37° C., and the incubation period was 24 to 48 hours with yeasts and 96 hours with Dermatophytes and hyphomycetes.

Candida albicans = assay: Antimycotic in vitro activity, serial dilution test (MIC), Candida albicans; type: cell-based; conditions: Meat extract-dextrose broth, 28° to 37° C., 24 to 48 hours
Description: as §1

[1] = tested on: dermatophytes, Hyphomycetes and yeasts; assay: Antimycotic in vitro activity, serial dilution test, overall comparison with the prior art; type: cell-based; conditions: in words
Description: as §2, §3
Meat extract-dextrose broth.
as §4

Aspergillus fumigatus = assay: Antimycotic in vitro activity, serial dilution test (MIC), Aspergillus fumigatus; type: cell-based; conditions: Kimmig's test medium, 28° to 37° C., 96 hours
Description: as §2, §3, §4

[2] = tested on: Trichophyton mentagrophytes; assay: Antimicrobial in vivo activity (topical) in the experimental guinea-pig trichophytosis model; parameters: species or system guinea-pig (Pirbright white); conditions: 1 × daily, 0.1% strength solution, from 3rd day
Description: White guinea-pigs of the Pirbright white strain are infected on the shaven, non-scarified back with a micro- and macroconidia suspension of Trichophyton mentagrophytes. The infected animals were treated topically 1 × daily with a 0.1% strength solution of the preparation according to the invention (in dimethyl sulphoxide: glycerol=1.4) beginning with the 3rd day. In untreated animals, the typical picture of a dermatophytosis with reddening, scaling and hair loss up to total integumental defect of the infection site developed within 12 days p.i.

Candida = assay: Antimycotic in vivo activity (oral) in mouse candidosis; parameters: species or system mouse (SPF-CF1); conditions: 10 to 100 mg/kg; for action in mouse candidosis, in words / Action (oral) in mouse candidosis: 6th day p.i.; for Action (oral) in mouse candidosis: one hour before and seven hours after infection; for surviving on the 6th day p.i.: untreated control about 5% survival
Description: Mice of the SPF-CF1 type were infected intravenously with 1-2×10^6 exponentially growing Candida cells which are suspended in physiological saline solution. One hour before and seven hours after infection, the animals are treated orally in each case with 10 to 100 mg/kg of body weight of the preparation. Untreated animals died on the 3rd to 6th day post-infection. The survival rate on the 6th day post-infection was about 5% in untreated control animals.

MIC (Torulopsis glabrata) [mg/L]	MIC (Trichophyton mentagr.) [mg/L]	MIC (Candida albicans) [mg/L]	MIC (Aspergillus fumigatus) [mg/L]	Compound	antimycotic action compared with compounds (A) and (B) known from the prior art [1]	action in guinea-pig trichophytosis, in words [2]	action in mouse candidosis, in words (Candida)	Action (oral) in mouse candidosis (Candida)	surviving on the 6th day p.i. (Candida) [%]
> 64	4 (≈ 11.6 µM)	16 (≈ 46.4 µM)	16 (≈ 46.4 µM)	Cc1ccc(C(O)(Cn2cncn2)C2(n3cnc(Cl)n3)CC2)cc1 (stereo not shown) [Example 8, 1-[1-(3-Chloro-1,2,4-triazol-1-yl)-cyclopropyl]-1-(4-methylphenyl)-2-(1,2,4-triazol-1-yl)-ethan-1-ol]	better antimycotic action than the compounds (A) and (B)				
> 64	16 (≈ 43.6 µM)	16 (≈ 43.6 µM)	64 (≈ 175 µM)	OC(Cn1cncn1)(c1ccc(F)c(F)c1)C1(n2cnc(Cl)n2)CC1 (stereo not shown) [Example 11, 1-[1-(3-Chloro-1,2,4-triazol-1-yl)-cyclopropyl]-1-(3,4-difluorophenyl)-2-(1,2,4-triazol-1-yl)-ethan-1-ol]	better antimycotic action than the compounds (A) and (B)	good action	good to very good action	+++++ (very good action = 90% surviving on the 6th day p.i.)	> 80
> 64	8 (≈ 22.9 µM)	32 (≈ 91.8 µM)	32 (≈ 91.8 µM)	OC(Cn1cncn1)(c1ccc(F)cc1)C1(n2cnc(Cl)n2)CC1 (stereo not shown) [Example 7, 1-[1-(3-Chloro-1,2,4-triazol-1-yl)-cyclopropyl]-1-(4-fluorophenyl)-2-(1,2,4-triazol-1-yl)-ethan-1-ol]	better antimycotic action than the compounds (A) and (B)		good to very good action	+++++ (very good action = 90% surviving on the 6th day p.i.)	> 80
> 64	16 (≈ 43.6 µM)	32 (≈ 87.3 µM)	16 (≈ 43.6 µM)	OC(Cn1cncn1)(c1ccc(F)cc1F)C1(n2cnc(Cl)n2)CC1 (stereo not shown) [Example 10, 1-[1-(3-Chloro-1,2,4-triazol-1-yl)-cyclopropyl]-1-(2,4-difluorophenyl)-2-(1,2,4-triazol-1-yl)-ethan-1-ol]	better antimycotic action than the compounds (A) and (B)	good action	good to very good action	+++++ (very good action = 90% surviving on the 6th day p.i.)	> 80
> 64	8 (≈ 24.2 µM)	32 (≈ 96.7 µM)	16 (≈ 48.4 µM)	OC(Cn1cncn1)(c1ccccc1)C1(n2cnc(Cl)n2)CC1 (stereo not shown) [Example 6, 1-[1-(3-Chloro-1,2,4-triazol-1-yl)-cyclopropyl]-1-phenyl-2-(1,2,4-triazol-1-yl)-ethan-1-ol]	better antimycotic action than the compounds (A) and (B)	good action	good to very good action	+++++ (very good action = 90% surviving on the 6th day p.i.)	> 80
> 64	32 (≈ 105 µM)	> 64	> 64	OC(Cn1cncn1)(Cn1cncn1)c1cccc(Cl)c1 [(A), reference compound]					
16 (≈ 39.3 µM)	4 (≈ 9.83 µM)	32 (≈ 78.6 µM)	16 (≈ 39.3 µM)	OC(Cn1cncn1)(c1ccc(-c2ccccc2)cc1)C1(n2cnc(Cl)n2)CC1 (stereo not shown) [Example 9, 1-(4-Biphenyl)-1-[1-(3-chloro-1,2,4-triazol-1-yl)-cyclopropyl]-2-(1,2,4-triazol-1-yl)-ethan-1-ol]	better antimycotic action than the compounds (A) and (B)				
> 64	4 (≈ 11 µM)	8 (≈ 21.9 µM)	32 (≈ 87.6 µM)	OC(Cn1cncn1)(c1ccc(Cl)cc1)C1(n2cnc(Cl)n2)CC1 (stereo not shown) [Example 4, 1-(4-Chlorophenyl)-1-[1-(3-chloro-1,2,4-triazol-1-yl)-cyclopropyl]-2-(1,2,4-triazol-1-yl)-ethan-1-ol]	better antimycotic action than the compounds (A) and (B)		good to very good action	+++++ (very good action = 90% surviving on the 6th day p.i.)	> 80
> 64	64 (≈ 237 µM)	64 (≈ 237 µM)	> 64	OC(Cn1cncn1)(Cn1cncn1)c1ccccc1 [(B), reference compound]					
